Activity calls are given as the source filed them. No cut-off for these calls is given here.
Columns and labels:
[1] = tested on: Caenorhabditis elegans; experiment: (§1) Inhibition of Caenorhabditis elegans GST-fused PRMT7 expressed in Escherichia coli at 100 uM using Caenorhabditis elegans GST-SFTB-2 (99 to 248 residues) peptide as substrate and human histone H2B as cosubstrate incubated under 15 degreeC in presence of 3H-SAM by SDS-PAGE based densitometric analysis
[2] = molecular target: T1, Protein arginine N-methyltransferase 9 (Homo sapiens) (UniProt Q6P2P2); experiment: Inhibition of PRMT9 catalysed SF3B2 R508 methylation in human MCF7 cells upto 100 uM measured after 72 hrs by immunoblotting analysis; assay type: cell-based
T1 sequence (whole entry): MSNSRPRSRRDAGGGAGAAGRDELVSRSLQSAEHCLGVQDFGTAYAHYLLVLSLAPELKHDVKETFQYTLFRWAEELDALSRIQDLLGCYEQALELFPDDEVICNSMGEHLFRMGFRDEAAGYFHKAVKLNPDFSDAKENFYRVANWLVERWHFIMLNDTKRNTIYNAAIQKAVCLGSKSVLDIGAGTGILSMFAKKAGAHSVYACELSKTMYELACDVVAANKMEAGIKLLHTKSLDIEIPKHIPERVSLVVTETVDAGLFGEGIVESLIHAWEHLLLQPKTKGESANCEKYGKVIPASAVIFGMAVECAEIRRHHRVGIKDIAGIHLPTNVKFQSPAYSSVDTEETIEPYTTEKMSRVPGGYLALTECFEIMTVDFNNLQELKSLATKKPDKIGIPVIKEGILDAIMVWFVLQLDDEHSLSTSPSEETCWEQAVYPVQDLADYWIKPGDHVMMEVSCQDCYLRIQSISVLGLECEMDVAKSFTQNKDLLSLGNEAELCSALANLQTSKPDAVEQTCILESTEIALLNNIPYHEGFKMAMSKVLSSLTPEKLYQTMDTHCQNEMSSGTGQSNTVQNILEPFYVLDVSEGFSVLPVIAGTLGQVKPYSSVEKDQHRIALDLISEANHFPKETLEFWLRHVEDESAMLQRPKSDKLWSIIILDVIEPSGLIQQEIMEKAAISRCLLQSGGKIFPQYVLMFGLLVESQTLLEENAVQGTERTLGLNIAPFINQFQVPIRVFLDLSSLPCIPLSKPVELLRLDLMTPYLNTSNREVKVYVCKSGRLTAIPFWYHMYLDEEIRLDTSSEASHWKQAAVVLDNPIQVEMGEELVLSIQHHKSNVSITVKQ

[3] = molecular target: T1, Protein arginine N-methyltransferase 9 (Homo sapiens); experiment: Inhibition of human GST-fused PRMT9 expressed in Escherichia coli at less than 5 uM using human GST-SF3B2 (401 to 550 residues) peptide as substrate and human histone H2B as cosubstrate incubated under 37 degreeC in presence of 3H-SAM by SDS-PAGE based densitometric analysis relative to control
[4] = molecular target: T1, Protein arginine N-methyltransferase 9 (Homo sapiens); experiment: Inhibition of human GST-fused PRMT9 expressed in Escherichia coli at 100 uM using human GST-SF3B2 (401 to 550 residues) peptide as substrate and human histone H2B as cosubstrate incubated under 37 degreeC in presence of 3H-SAM by SDS-PAGE based densitometric analysis relative to control
[5] = tested on: Caenorhabditis elegans; experiment: as §1, with “PRMT9” for “PRMT7”, “GST-SFTB2” for “GST-SFTB-2”, “25” for “15”, “analysis relative to control” for “analysis”
[6] = molecular target: T1, Protein arginine N-methyltransferase 9 (Homo sapiens); experiment: Inhibition of PRMT9 catalysed SF3B2 R508 methylation in human MDA-MB-436 cells upto 100 uM measured after 72 hrs by immunoblotting analysis; assay type: cell-based
[7] = tested on: Caenorhabditis elegans; experiment: as §1, with “250” for “100”, “analysis relative to control” for “analysis”
[8] = tested on: Caenorhabditis elegans; experiment: as §1, with “PRMT9” for “PRMT7”, “25 to 50” for “100”, “GST-SFTB2” for “GST-SFTB-2”, “25” for “15”, “analysis relative to control” for “analysis”; conditions: dose 25-50 µM
[9] = molecular target: T1, Protein arginine N-methyltransferase 9 (Homo sapiens); experiment: Inhibition of human GST-fused PRMT9 expressed in Escherichia coli using human GST-SF3B2 (401 to 550 residues) peptide as substrate and human histone H2B as cosubstrate under 37 degreeC in presence of 3H-SAM by SDS-PAGE based densitometric analysis; conditions: dose 5-100 µM
[10] = molecular target: T1, Protein arginine N-methyltransferase 9 (Homo sapiens); experiment: Inhibition of human recombinant PRMT9 using biotinylated SF3B2(500 to 519 residues) as substrate and SAM as cosubstrate pre-incubated with compound for 30 mins followed by substrate addition measured after 60 mins by AlphaLISA assay; conditions: time 90.0 min
[11] = molecular target: T2, Protein arginine N-methyltransferase 7 (Homo sapiens) (UniProt Q9NVM4); experiment: Inhibition of human GST-fused PRMT7 expressed in Escherichia coli at 100 uM using human GST-SF3B2 (401 to 550 residues) peptide as substrate and human histone H2B as cosubstrate incubated under 15 degreeC in presence of 3H-SAM by SDS-PAGE based densitometric analysis
T2 sequence (whole entry): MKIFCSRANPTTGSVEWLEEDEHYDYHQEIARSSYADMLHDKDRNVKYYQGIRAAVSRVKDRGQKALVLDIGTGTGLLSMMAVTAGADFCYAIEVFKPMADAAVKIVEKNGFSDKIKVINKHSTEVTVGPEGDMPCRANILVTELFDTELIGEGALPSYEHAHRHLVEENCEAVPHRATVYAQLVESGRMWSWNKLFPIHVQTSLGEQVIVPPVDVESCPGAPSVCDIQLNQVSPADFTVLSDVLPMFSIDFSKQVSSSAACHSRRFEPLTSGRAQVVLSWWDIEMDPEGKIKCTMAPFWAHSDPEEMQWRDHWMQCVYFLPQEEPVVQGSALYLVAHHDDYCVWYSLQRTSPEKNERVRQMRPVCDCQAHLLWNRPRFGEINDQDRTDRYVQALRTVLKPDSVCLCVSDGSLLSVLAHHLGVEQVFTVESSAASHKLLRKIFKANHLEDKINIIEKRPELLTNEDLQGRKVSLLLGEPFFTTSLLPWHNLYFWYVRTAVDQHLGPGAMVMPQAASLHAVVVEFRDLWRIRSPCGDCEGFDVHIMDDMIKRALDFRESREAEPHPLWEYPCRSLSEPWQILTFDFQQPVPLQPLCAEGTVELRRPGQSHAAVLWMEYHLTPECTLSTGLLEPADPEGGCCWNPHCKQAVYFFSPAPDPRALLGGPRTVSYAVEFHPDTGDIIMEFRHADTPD

[12] = molecular target: T1, Protein arginine N-methyltransferase 9 (Homo sapiens); experiment: Inhibition of human GST-fused PRMT9 expressed in Escherichia coli at 100 uM using human GST-SF3B2 (401 to 550 residues) peptide as substrate and human histone H2B as cosubstrate incubated under 37 degreeC in presence of 3H-SAM by SDS-PAGE based densitometric analysis
[13] = Selectivity ratio of human GST-fused PRMT9 to Caenorhabditis elegans GST-fused PRMT9

For `COC(=O)c1cc(O)c2cc(NC(=O)NCCCNC(=N)NC[C@H]3O[C@@H](n4cnc5c(N)ncnc54)[C@H](O)[C@@H]3O)ccc2c1`, the inhibition [1] was “inactive”, the inhibition [2] was “inactive” and the inhibition [3] was 50%. For the same molecule, the inhibition [4] was 100%, the inhibition [5] was 100% and the inhibition [6] was “inactive”. The inhibition [7] was 50%, the inhibition [8] was 50% and the inhibition [9] was “Dose-Dependent Effect”.
In the case of `COC(=O)c1cc(O)c2cc(NC(=O)Nc3ccc4cc(C(=O)OC)cc(O)c4c3)ccc2c1`, the inhibition [10] was “inactive”.
With `COC(=O)c1cc(O)c2cc(NC(=O)NCCCCNC(=N)NCC[C@H]3O[C@@H](n4cnc5c(N)ncnc54)[C@H](O)[C@@H]3O)ccc2c1` the inhibition [2] was “inactive” and the inhibition [6] was “inactive”.
In the case of `O=C(Nc1ccc2[nH]cc(C(=O)O)c2c1)Nc1ccc2[nH]cc(C(=O)O)c2c1`, the inhibition [10] was “inactive”.
With `O=C(Nc1ccc2cc(C(=O)O)cc(O)c2c1)Nc1ccc2cc(C(=O)O)cc(O)c2c1` the inhibition [10] was “inactive”.
For `O=C(CC(=O)Nc1ccc2[nH]cc(C(=O)O)c2c1)Nc1ccc2[nH]cc(C(=O)O)c2c1`, the inhibition [10] was “inactive”.
For `COC(=O)c1c[nH]c2ccc(NC(=O)CC(=O)Nc3ccc4[nH]cc(C(=O)OC)c4c3)cc12`, the inhibition [10] was “inactive”.
In the case of `COC(=O)c1cc(O)c2cc(NC(=O)NCCCCNC(=N)NC[C@H]3O[C@@H](n4cnc5c(N)ncnc54)[C@H](O)[C@@H]3O)ccc2c1`, the inhibition [1] was “inactive”, the inhibition [3] was 50% and the inhibition [4] was 100%. It also gave an inhibition [5] of 100%, an inhibition [7] of 50% and an inhibition [8] of 50%. The inhibition [11] was “Active” and the inhibition [9] was “Dose-Dependent Effect”.
With `CCOC(=O)c1cc2cc(NC(=O)CNC(=O)Nc3ccc([N+](=O)[O-])cc3)ccc2[nH]1` the inhibition [10] was “inactive”.
In the case of `CSC[C@H]1O[C@@H](n2cnc3c(N)ncnc32)[C@H](O)[C@@H]1O`, the inhibition [12] was “Active”.
In the case of `COC(=O)c1cc(O)c2cc(NC(=O)NCCCCCCCNC(=N)NC[C@H]3O[C@@H](n4cnc5c(N)ncnc54)[C@H](O)[C@@H]3O)ccc2c1`, the inhibition [2] was “inactive” and the inhibition [6] was “inactive”.
For `COC(=O)c1cc(O)c2cc(NC(=O)NCCCCCNC(=N)NC[C@H]3O[C@@H](n4cnc5c(N)ncnc54)[C@H](O)[C@@H]3O)ccc2c1`, the inhibition [1] was “inactive”, the Selectivity ratio [13] was 5 and the inhibition [2] was “inactive”. For the same molecule, the inhibition [4] was 100%, the inhibition [5] was 100% and the inhibition [6] was “inactive”. For the same molecule, the inhibition [11] was “Active” and the inhibition [9] was “Dose-Dependent Effect”.

Reference: ChEMBL document CHEMBL5365419, “Identification of a Protein Arginine Methyltransferase 7 (PRMT7)/Protein Arginine Methyltransferase 9 (PRMT9) Inhibitor” (J Med Chem, 2023)
